Holding throughout (assay): Ex vivo KiNativ ATP/ADP probe competition in mouse cortical brain lysates
Holding throughout (type): binding

Test [1] has as its target T1, MAP4K5 (Mus musculus, UniProt Q8BPM2).
T1 construct: from tissue; host or cells: mouse cortical brain lysate
To be noted: NVHTGELAAVKIIK, Lys1.

Test [2] deals with TAO1, TAO3. The settings on record: DIKAGNILLTEPGQVK, Lys2.
Test [3] deals with T2, TAO2 (Mus musculus, UniProt Q6ZQ29).
T2 construct: from tissue; host or cells: mouse cortical brain lysate
T2 sequence (Q6ZQ29 1-1240): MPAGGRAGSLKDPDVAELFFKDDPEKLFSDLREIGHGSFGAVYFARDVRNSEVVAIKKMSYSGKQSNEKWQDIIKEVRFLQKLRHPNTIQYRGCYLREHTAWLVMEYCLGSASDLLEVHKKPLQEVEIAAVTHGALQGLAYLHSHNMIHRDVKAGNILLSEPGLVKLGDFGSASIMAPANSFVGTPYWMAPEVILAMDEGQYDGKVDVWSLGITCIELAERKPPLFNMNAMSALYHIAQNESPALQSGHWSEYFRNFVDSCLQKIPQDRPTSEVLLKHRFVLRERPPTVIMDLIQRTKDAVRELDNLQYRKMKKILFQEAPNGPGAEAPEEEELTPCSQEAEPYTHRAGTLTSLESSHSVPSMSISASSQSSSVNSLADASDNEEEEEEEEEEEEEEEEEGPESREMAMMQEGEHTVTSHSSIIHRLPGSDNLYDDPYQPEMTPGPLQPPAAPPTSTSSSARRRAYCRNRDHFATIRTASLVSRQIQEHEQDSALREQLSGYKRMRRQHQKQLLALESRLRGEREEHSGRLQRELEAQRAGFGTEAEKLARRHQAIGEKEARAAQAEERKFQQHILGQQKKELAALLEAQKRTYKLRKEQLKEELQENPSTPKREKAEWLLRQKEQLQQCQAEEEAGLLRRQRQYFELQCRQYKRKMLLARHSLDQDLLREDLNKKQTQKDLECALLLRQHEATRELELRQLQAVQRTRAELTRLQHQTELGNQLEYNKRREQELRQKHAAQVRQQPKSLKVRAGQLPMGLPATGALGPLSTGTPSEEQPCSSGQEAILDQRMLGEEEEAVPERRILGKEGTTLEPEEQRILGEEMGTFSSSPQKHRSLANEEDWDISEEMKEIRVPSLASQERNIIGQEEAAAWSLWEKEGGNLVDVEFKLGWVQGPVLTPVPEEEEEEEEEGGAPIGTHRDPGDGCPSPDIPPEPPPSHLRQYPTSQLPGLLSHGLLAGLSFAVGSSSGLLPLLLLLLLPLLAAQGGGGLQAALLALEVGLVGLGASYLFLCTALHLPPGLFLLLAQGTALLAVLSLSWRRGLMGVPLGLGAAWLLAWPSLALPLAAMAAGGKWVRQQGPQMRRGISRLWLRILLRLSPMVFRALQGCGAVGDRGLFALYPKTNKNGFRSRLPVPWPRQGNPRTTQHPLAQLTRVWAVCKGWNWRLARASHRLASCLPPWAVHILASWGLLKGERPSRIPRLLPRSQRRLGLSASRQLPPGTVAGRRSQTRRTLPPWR

Test [4] concerns the target T3, TAO1 (Mus musculus, UniProt Q5F2E8).
T3 construct: from tissue; host or cells: mouse cortical brain lysate
T3 sequence (Q5F2E8 1-1001): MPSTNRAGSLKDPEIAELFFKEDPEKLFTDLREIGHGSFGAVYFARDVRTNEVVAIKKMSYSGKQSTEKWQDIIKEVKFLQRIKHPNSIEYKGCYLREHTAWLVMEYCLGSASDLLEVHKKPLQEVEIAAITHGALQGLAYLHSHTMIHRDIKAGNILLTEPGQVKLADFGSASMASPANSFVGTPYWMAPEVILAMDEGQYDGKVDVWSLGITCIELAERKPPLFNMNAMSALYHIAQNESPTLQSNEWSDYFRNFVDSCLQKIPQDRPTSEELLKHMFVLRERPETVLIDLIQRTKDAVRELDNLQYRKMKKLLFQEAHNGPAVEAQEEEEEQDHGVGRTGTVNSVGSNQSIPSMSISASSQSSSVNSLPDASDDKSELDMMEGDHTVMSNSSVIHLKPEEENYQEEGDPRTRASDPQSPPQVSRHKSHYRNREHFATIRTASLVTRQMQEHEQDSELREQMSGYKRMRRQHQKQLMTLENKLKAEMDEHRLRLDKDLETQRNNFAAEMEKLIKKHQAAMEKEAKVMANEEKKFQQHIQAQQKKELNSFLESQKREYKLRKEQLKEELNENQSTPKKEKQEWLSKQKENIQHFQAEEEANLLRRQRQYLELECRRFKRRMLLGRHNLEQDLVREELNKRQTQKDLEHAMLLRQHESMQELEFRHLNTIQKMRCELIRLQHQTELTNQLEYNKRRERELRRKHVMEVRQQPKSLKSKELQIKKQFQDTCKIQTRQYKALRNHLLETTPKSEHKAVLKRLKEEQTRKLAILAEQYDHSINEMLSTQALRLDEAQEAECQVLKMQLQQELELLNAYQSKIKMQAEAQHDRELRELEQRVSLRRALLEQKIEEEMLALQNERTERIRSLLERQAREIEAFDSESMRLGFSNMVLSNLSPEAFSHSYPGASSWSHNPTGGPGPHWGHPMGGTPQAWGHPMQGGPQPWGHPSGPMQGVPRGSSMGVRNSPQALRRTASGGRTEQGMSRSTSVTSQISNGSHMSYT
The settings on record: TNEVVAIKK; Lys1; ADP probe.

The target in test [5] is T4, FER (Mus musculus, UniProt P70451).
T4 construct: from tissue; host or cells: mouse cortical brain lysate

Test [6] relates to TTBK1, TTBK2. To be noted: DIKPSNFAMGR; Lys2; ADP probe.

T4 sequence (P70451 whole entry): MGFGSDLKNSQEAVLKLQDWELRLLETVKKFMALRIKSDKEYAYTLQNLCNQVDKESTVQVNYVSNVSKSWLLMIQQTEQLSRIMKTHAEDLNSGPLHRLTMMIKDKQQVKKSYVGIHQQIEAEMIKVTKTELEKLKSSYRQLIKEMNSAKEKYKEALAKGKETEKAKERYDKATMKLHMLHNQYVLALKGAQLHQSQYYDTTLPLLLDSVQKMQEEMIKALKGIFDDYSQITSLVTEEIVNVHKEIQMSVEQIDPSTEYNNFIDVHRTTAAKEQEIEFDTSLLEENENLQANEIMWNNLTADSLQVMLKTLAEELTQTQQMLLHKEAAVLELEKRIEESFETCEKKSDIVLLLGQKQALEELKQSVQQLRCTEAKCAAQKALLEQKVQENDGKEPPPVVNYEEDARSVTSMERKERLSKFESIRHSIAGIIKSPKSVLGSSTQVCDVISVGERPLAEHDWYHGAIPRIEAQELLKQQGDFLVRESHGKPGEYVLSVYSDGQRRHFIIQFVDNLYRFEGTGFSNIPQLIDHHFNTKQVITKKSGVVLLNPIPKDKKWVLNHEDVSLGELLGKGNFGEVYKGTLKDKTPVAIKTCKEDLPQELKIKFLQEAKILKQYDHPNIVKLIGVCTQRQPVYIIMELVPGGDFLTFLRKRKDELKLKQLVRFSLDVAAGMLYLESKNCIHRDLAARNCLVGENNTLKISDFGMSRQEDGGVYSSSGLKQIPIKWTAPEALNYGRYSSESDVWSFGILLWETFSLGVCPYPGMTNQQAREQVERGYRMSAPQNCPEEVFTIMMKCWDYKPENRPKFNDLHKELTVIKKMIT
T1 sequence (Q8BPM2 whole entry): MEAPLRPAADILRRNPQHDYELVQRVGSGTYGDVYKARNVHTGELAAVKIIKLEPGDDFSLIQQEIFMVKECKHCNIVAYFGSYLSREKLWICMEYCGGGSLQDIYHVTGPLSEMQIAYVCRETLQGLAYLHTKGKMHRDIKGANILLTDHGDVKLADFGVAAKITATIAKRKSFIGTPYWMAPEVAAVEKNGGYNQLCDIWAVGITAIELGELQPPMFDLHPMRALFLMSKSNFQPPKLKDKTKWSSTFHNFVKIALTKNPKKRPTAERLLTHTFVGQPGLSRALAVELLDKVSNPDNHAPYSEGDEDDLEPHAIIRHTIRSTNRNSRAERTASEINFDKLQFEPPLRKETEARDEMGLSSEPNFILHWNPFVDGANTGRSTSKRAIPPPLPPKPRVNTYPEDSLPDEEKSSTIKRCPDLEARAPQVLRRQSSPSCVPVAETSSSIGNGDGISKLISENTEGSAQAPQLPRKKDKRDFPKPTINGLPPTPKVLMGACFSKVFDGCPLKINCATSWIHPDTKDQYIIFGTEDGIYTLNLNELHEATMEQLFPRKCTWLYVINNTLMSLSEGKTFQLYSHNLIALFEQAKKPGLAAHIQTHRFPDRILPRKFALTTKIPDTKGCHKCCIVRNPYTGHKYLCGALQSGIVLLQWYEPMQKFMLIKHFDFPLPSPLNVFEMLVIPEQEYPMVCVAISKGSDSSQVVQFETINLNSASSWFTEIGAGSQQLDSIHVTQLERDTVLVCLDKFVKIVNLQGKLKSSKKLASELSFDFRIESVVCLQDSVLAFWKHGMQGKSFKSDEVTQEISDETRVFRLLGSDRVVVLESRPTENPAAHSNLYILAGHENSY

In the case of `CCC(C)(O)C#Cc1cc2c(ccn2-c2ccnc(N)n2)cn1` (stereo not shown) [BIIB-TTBK1i], the “Percent Inhibition at 1μM” value is given as 69.7% in test [1] (ADP probe); 58.7% in test [1] (ATP probe); 66.8% in test [2] (ADP probe); 69.5% in test [2] (ATP probe); 82.6% in test [3] (DVKAGNILLSEPGLVK, Lys2, ADP probe); 93.2% in test [3] (DVKAGNILLSEPGLVK, Lys2, ATP probe). Also, the “Percent Inhibition at 1μM” value in test [3] (NSEVVAIKK, Lys1, ADP probe) is 86.4%; in test [4] it was 75.9%; in test [5] (QEDGGVYSSSGLKQIPIK, Activation Loop, ADP probe) it was 66.7%; in test [5] (QEDGGVYSSSGLKQIPIK, Protein Kinase Domain, ATP probe) it was 69.4%; in test [5] (TPVAIKTCKEDLPQELK, Lys1, ADP probe), 79.1%; in test [5] (TPVAIKTCKEDLPQELK, Lys1, ATP probe) it was 74.9%. For the same compound, the “Percent Inhibition at 1μM” value in test [6] came to 95.8%.

The record behind these values is PMC7138307 (PLoS ONE, 2020).
